Patent US20260327239A1, “COMPOUNDS FOR COVALENT INHIBITION OF SHP2” (Purdue Research Foundation, priority 2023, published 2026)
pIC50: −log10 of the molar value.

Biological target: T1, LYP (Homo sapiens, UniProt Q9Y2R2)
T1 sequence (Q9Y2R2 1-807): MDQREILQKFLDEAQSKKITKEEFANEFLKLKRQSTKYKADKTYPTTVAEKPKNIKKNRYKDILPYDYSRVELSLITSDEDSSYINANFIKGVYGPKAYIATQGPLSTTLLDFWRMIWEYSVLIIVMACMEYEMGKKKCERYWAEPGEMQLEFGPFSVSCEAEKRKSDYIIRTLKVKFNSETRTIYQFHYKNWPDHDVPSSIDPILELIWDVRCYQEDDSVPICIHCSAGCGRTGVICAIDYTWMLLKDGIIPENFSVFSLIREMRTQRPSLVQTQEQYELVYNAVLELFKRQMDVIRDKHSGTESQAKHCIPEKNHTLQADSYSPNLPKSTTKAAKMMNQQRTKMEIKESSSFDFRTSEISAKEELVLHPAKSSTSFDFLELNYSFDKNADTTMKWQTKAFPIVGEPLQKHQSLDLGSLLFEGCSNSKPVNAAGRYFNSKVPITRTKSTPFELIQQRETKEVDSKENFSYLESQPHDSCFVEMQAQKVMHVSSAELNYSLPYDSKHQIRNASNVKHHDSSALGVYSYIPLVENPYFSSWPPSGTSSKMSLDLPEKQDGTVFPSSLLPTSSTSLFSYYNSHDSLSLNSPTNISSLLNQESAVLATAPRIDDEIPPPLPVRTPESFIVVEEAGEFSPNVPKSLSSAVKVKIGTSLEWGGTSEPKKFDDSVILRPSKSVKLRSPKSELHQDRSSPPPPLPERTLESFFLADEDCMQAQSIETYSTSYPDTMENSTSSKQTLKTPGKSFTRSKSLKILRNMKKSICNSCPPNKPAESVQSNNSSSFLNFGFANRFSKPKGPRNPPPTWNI
Test: Time-dependent IC50 determination, LYP (10 min preincubation, pNPP)
Assay type: biochemical
Procedure: During active compound characterization, other common PTPs, including SHP1. PTP1B, and LYP, were counter-screened. Compounds were incubated for 10 minutes with the corresponding PTP (4 μM) before being diluted 50-fold into a solution containing excess substrate para-nitrophenyl phosphate (10 mM) to monitor the remaining activity. […] This was not expected, given their high sequence and structural homology. […] While unexpected, the lower sequence homology provides a rationale for the observed selectivity.
Inhibitors were evaluated for their ability to inhibit the reaction catalyzed by SHP2 using para-nitrophenyl phosphate (pNPP) as a substrate at pH 7 and 25° C. The reaction was started in a clear flat-bottom 96-well plate (Corning Costar Assay Plate #9017) by the addition of 25 μL of 4 μM PTP in DMG buffer to 25 μl of 2× inhibitor (final concentrations=2 μM PTP, 100-0 μM inhibitor). Reactions were incubated for 1 or 10 minutes before transferring 4 μL into 196 μL of 10.1 mM pNPP in DMG buffer (final concentration=40 nM PTP, 10 mM pNPP). These wells were then allowed to react for 10, 45, or 3 minutes for SHP1 and SHP2, LYP, PTP1B respectively before quenching with 50 μL of 5 M NaOH. Plates were then read for absorbance at 405 nm using a CLARIOstar^Plus plate reader (BMG Labetch). […]

pIC50 (LYP, 10 minutes preincubation, curve not completed (solubility), extrapolated, read-out: 10 Minute IC50): 3.31
Fold-Selective (10 Minutes) (SHP2 over LYP): 31.12
SMILES: C=C1C(=O)[C@@]2(C(=O)N3CCN(c4ccc(I)cc4)CC3)CC(=O)C[C@@H]1C2 [Compound 37]
